The subject of the experiment is 227483-062-R1-J1-PDC complex spheroids with HUVEC/MSC, viability. Briefly: Anticancer human tumor 227483-062-R1-J1-PDC patient-derived pancreatic carcinoma cell line growth inhibition [CLK]. The conditions noted are these: for viability, T/C: stronger effect = lower value. An outline of the steps: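 Patient-derived tumor cells grown as complex spheroids with HUVEC endothelial cells and mesenchymal stem cells, treated with drug combinations. Concentrations descend in half-log steps from near clinical Cmax, or from 10 microM if Cmax unknown.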

The mark [1] stands for this setting: curve of first compound, second compound 0.0316 µM.
Setting [2] is: curve of first compound, second compound 0.1 µM.
The mark [3] stands for this setting: curve of first compound, second compound 0.316 µM.
The mark [4] stands for this setting: curve of first compound, second compound 1 µM.
[5] abbreviates: curve of first compound, second compound 3.16 µM.
The mark [6] stands for this setting: curve of first compound, second compound 10 µM.
Setting [7] is: second compound 0.0316 µM, first compound 0.0316 µM.
Where [8] appears, read: second compound 0.0316 µM, first compound 0.1 µM.
Where [9] appears, read: second compound 0.1 µM, first compound 0.0316 µM.
[10] abbreviates: second compound 0.1 µM, first compound 0.1 µM.
Setting [11] is: second compound 0.316 µM, first compound 0.0316 µM.
Where [12] appears, read: second compound 0.316 µM, first compound 0.1 µM.
The mark [13] stands for this setting: second compound 1 µM, first compound 0.0316 µM.
[14] abbreviates: second compound 1 µM, first compound 0.1 µM.
[15] abbreviates: second compound 3.16 µM, first compound 0.0316 µM.
Where [16] appears, read: second compound 3.16 µM, first compound 0.1 µM.
[17] abbreviates: second compound 10 µM, first compound 0.0316 µM.
The mark [18] stands for this setting: second compound 10 µM, first compound 0.1 µM.

Structures are written as SMILES. Several values for one entry are separate records, joined by “and”; a condition that tells them apart may be missing. Equal entries are not always repeated.
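Further: spheroids exposed to compounds for seven days before readout.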
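Wherever viability, T/C is given: percent of DMSO vehicle control luminescence as 100% viability.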

Regarding `Nc1ccccc1NC(=O)c1ccc(CNC(=O)OCc2cccnc2)cc1`, the viability, T/C (in general, the result in the treated group divided by that in the control group, in per cent) is, setting by setting: (compound 0.0316 µM) 102% and 79.6%; (compound 0.1 µM) 107% and 81.1%; (compound 0.316 µM) 116% and 94.4%; (compound 1 µM) 121% and 101%; (compound 3.16 µM) 135% and 104%; (compound 10 µM) 87.6% and 71.5%. Moreover, the IC50 – broadly, the point on the concentration scale where inhibition reaches its midpoint – (curve of compound) is over 10000 nM.

Consider `Cn1ncnc1[C@H]1c2n[nH]c(=O)c3cc(F)cc(c23)N[C@@H]1c1ccc(F)cc1` + CNC(=O)c1ccc(Nc2nc(OC3CCCC3)c3c(-c4ccc5nc(C)oc5c4)c[nH]c3n2)c(OC)c1, for which the IC50 reads like this: under setting [1], over 100 nM; under setting [2], over 100 nM; under setting [3], over 100 nM; under setting [4], over 100 nM; under setting [5], under 0.316 nM; under setting [6], under 0.316 nM. For the same compound, the viability, T/C by setting is: (second compound 0.0316 µM, first compound 0.000316 µM) 87.5%; (second compound 0.0316 µM, first compound 0.001 µM) 111%; (second compound 0.0316 µM, first compound 0.00316 µM) 118%; (second compound 0.0316 µM, first compound 0.01 µM) 100%; under setting [7], 89.1%; under setting [8], 97.1%. Further, the viability, T/C is 111% (second compound 0.1 µM, first compound 0.000316 µM); 120% (second compound 0.1 µM, first compound 0.001 µM); 106% (second compound 0.1 µM, first compound 0.00316 µM); 97.4% (second compound 0.1 µM, first compound 0.01 µM); 97% under setting [9]; 109% under setting [10]. The viability, T/C was 105% (second compound 0.316 µM, first compound 0.000316 µM); 84.2% (second compound 0.316 µM, first compound 0.001 µM); 78.5% (second compound 0.316 µM, first compound 0.00316 µM); 94.4% (second compound 0.316 µM, first compound 0.01 µM); 94.4% under setting [11]; 70.4% under setting [12]. Further, the viability, T/C reads like this: (second compound 1 µM, first compound 0.000316 µM) 69%; (second compound 1 µM, first compound 0.001 µM) 59.7%; (second compound 1 µM, first compound 0.00316 µM) 59.8%; (second compound 1 µM, first compound 0.01 µM) 67.4%; under setting [13], 71.9%; under setting [14], 58%. Besides, the viability, T/C reads like this: (second compound 3.16 µM, first compound 0.000316 µM) 40.7%; (second compound 3.16 µM, first compound 0.001 µM) 44.9%; (second compound 3.16 µM, first compound 0.00316 µM) 51.2%; (second compound 3.16 µM, first compound 0.01 µM) 48.5%; under setting [15], 49.4%; under setting [16], 41.3%. Moreover, the viability, T/C (second compound 10 µM, first compound 0.000316 µM) was 40.5%; the viability, T/C (second compound 10 µM, first compound 0.001 µM) was 39.3%; the viability, T/C (second compound 10 µM, first compound 0.00316 µM) was 36.5%; the viability, T/C (second compound 10 µM, first compound 0.01 µM) was 34.2%; the viability, T/C under setting [17] is 41%; the viability, T/C under setting [18] is 29.3%.

In the case of `Nc1ccn(C2OC(CO)C(O)C2(F)F)c(=O)n1` (stereo not given) + CN1CCN(c2cc(C(=O)Nc3cc4cc(-c5cnn(C)c5)ccc4cn3)ccn2)CC1, the IC50 under setting [1] was 72.5 nM; the IC50 under setting [2] was under 31.6 nM; the IC50 under setting [3] is under 31.6 nM; the IC50 under setting [4] was under 31.6 nM; the IC50 under setting [5] is under 31.6 nM; the IC50 under setting [6] is under 31.6 nM. The viability, T/C under setting [7] was 76%; the viability, T/C under setting [8] is 39%; the viability, T/C (second compound 0.0316 µM, first compound 0.316 µM) is 32.1%; the viability, T/C (second compound 0.0316 µM, first compound 1 µM) is 35.6%; the viability, T/C (second compound 0.0316 µM, first compound 3.16 µM) is 27.6%; the viability, T/C (second compound 0.0316 µM, first compound 10 µM) is 24.1%. Moreover, the viability, T/C was 36.7% under setting [9]; 25.1% under setting [10]; 24.1% (second compound 0.1 µM, first compound 0.316 µM); 21% (second compound 0.1 µM, first compound 1 µM); 22.5% (second compound 0.1 µM, first compound 3.16 µM); 15% (second compound 0.1 µM, first compound 10 µM). Moreover, the viability, T/C is, setting by setting: under setting [11], 4.9%; under setting [12], 3.69%; (second compound 0.316 µM, first compound 0.316 µM) 3.08%; (second compound 0.316 µM, first compound 1 µM) 2.47%; (second compound 0.316 µM, first compound 3.16 µM) 2.75%; (second compound 0.316 µM, first compound 10 µM) 1.97%. For the same compound, the viability, T/C by setting is: under setting [13], 1.05%; under setting [14], 1.34%; (second compound 1 µM, first compound 0.316 µM) 2.72%; (second compound 1 µM, first compound 1 µM) 2.08%; (second compound 1 µM, first compound 3.16 µM) 1.09%; (second compound 1 µM, first compound 10 µM) 1.14%. Further, the viability, T/C runs as follows: under setting [15], 2.12%; under setting [16], 2.2%; (second compound 3.16 µM, first compound 0.316 µM) 3.37%; (second compound 3.16 µM, first compound 1 µM) 1.88%; (second compound 3.16 µM, first compound 3.16 µM) 1.71%; (second compound 3.16 µM, first compound 10 µM) 1.79%. Also, the viability, T/C under setting [17] was 0.96%; the viability, T/C under setting [18] is 0.85%; the viability, T/C (second compound 10 µM, first compound 0.316 µM) is 1.06%; the viability, T/C (second compound 10 µM, first compound 1 µM) was 1.19%; the viability, T/C (second compound 10 µM, first compound 3.16 µM) was 0.9%; the viability, T/C (second compound 10 µM, first compound 10 µM) was 0.79%.

Regarding `C=CC(=O)N1CCN(c2nc(=O)n(-c3c(C)ccnc3C(C)C)c3nc(-c4c(O)cccc4F)c(F)cc23)C(C)C1` (stereo not given), the viability, T/C reads like this: (compound 0.0316 µM) 88.6% and 88%; (compound 0.1 µM) 83.2% and 92.8%; (compound 0.316 µM) 86% and 85.4%; (compound 1 µM) 95.2% and 125%; (compound 3.16 µM) 110% and 104%; (compound 10 µM) 109% and 95.8%. Also, the IC50 (curve of compound) was over 10000 nM.

Regarding `C#Cc1c(F)ccc2cc(O)cc(-c3ncc4c(N5CC6CCC(C5)N6)nc(OCC56CCCN5CC(F)C6)nc4c3F)c12` (stereo not given), the viability, T/C by setting is: (compound 0.0316 µM) 102% and 90.9%; (compound 0.1 µM) 93.7% and 102%; (compound 0.316 µM) 120% and 105%; (compound 1 µM) 130% and 104%; (compound 3.16 µM) 106% and 124%; (compound 10 µM) 98.6% and 78.4%. Moreover, the IC50 (curve of compound) was over 10000 nM.
